Data reported in PubChem BioAssay (NCI).
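Step 1: Grow cells in 96-well plates. Step 2: Expose to compound for 48 hours at 5 concentrations. Step 3: Interpolate endpoints linearly; if unreached, use highest concentration. Definition used: TGI = concentration required for complete inhibition of growth.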

What was measured:
Experiment in all cases: NCI tumour cell line growth inhibition, 48 h
OVCAR-8 ovarian = system: OVCAR-8 ovarian
BT-549 breast = system: BT-549 breast
CAKI-1 renal = system: CAKI-1 renal
PC-3 prostate = system: PC-3 prostate
SN12C renal = system: SN12C renal
NCI/ADR-RES ovarian = system: NCI/ADR-RES ovarian
MDA-N = system: MDA-N
HL-60(TB) leukemia = system: HL-60(TB) leukemia
HCT-116 colon = system: HCT-116 colon
HCC-2998 colon = system: HCC-2998 colon
SK-MEL-5 melanoma = system: SK-MEL-5 melanoma
RPMI-8226 leukemia = system: RPMI-8226 leukemia
MALME-3M melanoma = system: MALME-3M melanoma
SNB-75 CNS = system: SNB-75 CNS
SF-268 CNS = system: SF-268 CNS
HOP-92 NSCLC = system: HOP-92 NSCLC
UACC-257 melanoma = system: UACC-257 melanoma
UACC-62 melanoma = system: UACC-62 melanoma
UO-31 renal = system: UO-31 renal
LOX IMVI melanoma = system: LOX IMVI melanoma
SW-620 colon = system: SW-620 colon
NCI-H522 lung = system: NCI-H522 lung
SF-295 CNS = system: SF-295 CNS
CCRF-CEM leukemia = system: CCRF-CEM leukemia
MCF7 breast = system: MCF7 breast
SK-OV-3 ovarian = system: SK-OV-3 ovarian
M14 melanoma = system: M14 melanoma
HT29 colon = system: HT29 colon
RXF 393 renal = system: RXF 393 renal
A549 NSCLC = system: A549 NSCLC
EKVX NSCLC = system: EKVX NSCLC
SK-MEL-2 melanoma = system: SK-MEL-2 melanoma
SR leukemia = system: SR leukemia
COLO 205 colon = system: COLO 205 colon
MOLT-4 leukemia = system: MOLT-4 leukemia
K-562 leukemia = system: K-562 leukemia
SK-MEL-28 melanoma = system: SK-MEL-28 melanoma
TK-10 renal = system: TK-10 renal
OVCAR-3 ovarian = system: OVCAR-3 ovarian
A498 renal = system: A498 renal
HS 578T breast = system: HS 578T breast
ACHN renal = system: ACHN renal
SNB-19 CNS = system: SNB-19 CNS
HCT-15 colon = system: HCT-15 colon
MDA-MB-435 = system: MDA-MB-435
NCI-H460 lung = system: NCI-H460 lung
DU-145 prostate = system: DU-145 prostate
MDA-MB-231 breast = system: MDA-MB-231 breast
U251 CNS = system: U251 CNS
786-0 renal = system: 786-0 renal
HOP-62 NSCLC = system: HOP-62 NSCLC
IGROV1 ovarian = system: IGROV1 ovarian
KM12 colon = system: KM12 colon
SF-539 CNS = system: SF-539 CNS
NCI-H23 lung = system: NCI-H23 lung
OVCAR-5 ovarian = system: OVCAR-5 ovarian
NCI-H226 lung = system: NCI-H226 lung
OVCAR-4 ovarian = system: OVCAR-4 ovarian

O=[N+]([O-])c1ccc2sc(C=Nc3ccc(O)cc3)cc2c1
TGI (OVCAR-8 ovarian): > 100 µM | TGI (BT-549 breast): > 100 µM | TGI (CAKI-1 renal): 43.5 µM | TGI (PC-3 prostate): > 100 µM | TGI (SN12C renal): > 100 µM | TGI (NCI/ADR-RES ovarian): > 100 µM | TGI (MDA-N): 80.6 µM | TGI (HL-60(TB) leukemia): 53.2 µM | TGI (HCT-116 colon): > 100 µM | TGI (HCC-2998 colon): 56.6 µM | TGI (SK-MEL-5 melanoma): 68 µM | TGI (RPMI-8226 leukemia): 79.7 µM | TGI (MALME-3M melanoma): > 100 µM | TGI (SNB-75 CNS): 49.9 µM | TGI (SF-268 CNS): > 100 µM | TGI (HOP-92 NSCLC): > 100 µM | TGI (UACC-257 melanoma): 56.2 µM | TGI (UACC-62 melanoma): 61.9 µM | TGI (UO-31 renal): > 100 µM | TGI (LOX IMVI melanoma): 51.2 µM | TGI (SW-620 colon): 43.9 µM | TGI (NCI-H522 lung): > 100 µM | TGI (SF-295 CNS): > 100 µM | TGI (CCRF-CEM leukemia): 59.6 µM | TGI (MCF7 breast): 47.7 µM | TGI (SK-OV-3 ovarian): > 100 µM | TGI (M14 melanoma): > 100 µM | TGI (HT29 colon): > 100 µM | TGI (RXF 393 renal): 57.9 µM | TGI (A549 NSCLC): > 100 µM | TGI (EKVX NSCLC): > 100 µM | TGI (SK-MEL-2 melanoma): 59 µM | TGI (SR leukemia): 97 µM | TGI (COLO 205 colon): > 100 µM | TGI (MOLT-4 leukemia): 44.6 µM | TGI (K-562 leukemia): 43 µM | TGI (SK-MEL-28 melanoma): > 100 µM | TGI (TK-10 renal): > 100 µM | TGI (OVCAR-3 ovarian): 28.6 µM | TGI (A498 renal): > 100 µM | TGI (HS 578T breast): 66.4 µM | TGI (ACHN renal): > 100 µM | TGI (SNB-19 CNS): > 100 µM | TGI (HCT-15 colon): > 100 µM | TGI (MDA-MB-435): 34.3 µM | TGI (NCI-H460 lung): > 100 µM | TGI (DU-145 prostate): > 100 µM | TGI (MDA-MB-231 breast): 44.5 µM | TGI (U251 CNS): 42.7 µM | TGI (786-0 renal): 40.4 µM | TGI (HOP-62 NSCLC): > 100 µM | TGI (IGROV1 ovarian): > 100 µM | TGI (KM12 colon): > 100 µM | TGI (SF-539 CNS): 55.4 µM | TGI (NCI-H23 lung): > 100 µM | TGI (OVCAR-5 ovarian): > 100 µM

CCOC(=O)C1(C)CCCc2sc(N)c(C#N)c21 (centres undefined)
TGI (OVCAR-8 ovarian): > 100 µM | TGI (BT-549 breast): > 100 µM | TGI (PC-3 prostate): > 100 µM | TGI (SN12C renal): > 100 µM | TGI (MDA-N): > 100 µM | TGI (HL-60(TB) leukemia): > 100 µM | TGI (HCT-116 colon): > 100 µM | TGI (HCC-2998 colon): > 100 µM | TGI (SK-MEL-5 melanoma): > 100 µM | TGI (RPMI-8226 leukemia): > 100 µM | TGI (MALME-3M melanoma): > 100 µM | TGI (SNB-75 CNS): > 100 µM | TGI (HOP-92 NSCLC): > 100 µM | TGI (UACC-257 melanoma): > 100 µM | TGI (UACC-62 melanoma): > 100 µM | TGI (UO-31 renal): > 100 µM | TGI (SW-620 colon): > 100 µM | TGI (MCF7 breast): > 100 µM | TGI (M14 melanoma): > 100 µM | TGI (HT29 colon): > 100 µM | TGI (RXF 393 renal): > 100 µM | TGI (A549 NSCLC): > 100 µM | TGI (NCI-H226 lung): > 100 µM | TGI (EKVX NSCLC): > 100 µM | TGI (SK-MEL-2 melanoma): > 100 µM | TGI (SR leukemia): > 100 µM | TGI (COLO 205 colon): > 100 µM | TGI (MOLT-4 leukemia): > 100 µM | TGI (K-562 leukemia): > 100 µM | TGI (SK-MEL-28 melanoma): > 100 µM | TGI (TK-10 renal): > 100 µM | TGI (A498 renal): > 100 µM | TGI (HS 578T breast): > 100 µM | TGI (ACHN renal): > 100 µM | TGI (SNB-19 CNS): > 100 µM | TGI (HCT-15 colon): > 100 µM | TGI (NCI-H460 lung): > 100 µM | TGI (MDA-MB-231 breast): > 100 µM | TGI (U251 CNS): > 100 µM | TGI (786-0 renal): > 100 µM | TGI (HOP-62 NSCLC): > 100 µM | TGI (IGROV1 ovarian): > 100 µM | TGI (KM12 colon): > 100 µM | TGI (NCI-H23 lung): > 100 µM | TGI (OVCAR-5 ovarian): > 100 µM

O=C1CSC(c2ccc([N+](=O)[O-])cc2)N1c1nc(-c2ccc3c(c2)CCCC3)cs1 (centres undefined)
TGI (OVCAR-8 ovarian): > 100 µM | TGI (BT-549 breast): > 100 µM | TGI (CAKI-1 renal): > 100 µM | TGI (PC-3 prostate): > 100 µM | TGI (SN12C renal): > 100 µM | TGI (NCI/ADR-RES ovarian): > 100 µM | TGI (MDA-N): > 100 µM | TGI (HL-60(TB) leukemia): > 100 µM | TGI (HCT-116 colon): > 100 µM | TGI (HCC-2998 colon): > 100 µM | TGI (SK-MEL-5 melanoma): > 100 µM | TGI (RPMI-8226 leukemia): > 100 µM | TGI (MALME-3M melanoma): > 100 µM | TGI (SNB-75 CNS): > 100 µM | TGI (SF-268 CNS): > 100 µM | TGI (UACC-257 melanoma): > 100 µM | TGI (UACC-62 melanoma): > 100 µM | TGI (UO-31 renal): > 100 µM | TGI (LOX IMVI melanoma): > 100 µM | TGI (SW-620 colon): > 100 µM | TGI (NCI-H522 lung): > 100 µM | TGI (SF-295 CNS): > 100 µM | TGI (MCF7 breast): > 100 µM | TGI (HT29 colon): > 100 µM | TGI (RXF 393 renal): > 100 µM | TGI (NCI-H226 lung): > 100 µM | TGI (EKVX NSCLC): > 100 µM | TGI (SK-MEL-2 melanoma): > 100 µM | TGI (SR leukemia): > 100 µM | TGI (COLO 205 colon): > 100 µM | TGI (MOLT-4 leukemia): > 100 µM | TGI (K-562 leukemia): > 100 µM | TGI (SK-MEL-28 melanoma): > 100 µM | TGI (TK-10 renal): > 100 µM | TGI (OVCAR-3 ovarian): > 100 µM | TGI (A498 renal): > 100 µM | TGI (HS 578T breast): > 100 µM | TGI (ACHN renal): > 100 µM | TGI (SNB-19 CNS): > 100 µM | TGI (HCT-15 colon): > 100 µM | TGI (MDA-MB-435): > 100 µM | TGI (NCI-H460 lung): > 100 µM | TGI (DU-145 prostate): > 100 µM | TGI (MDA-MB-231 breast): > 100 µM | TGI (U251 CNS): > 100 µM | TGI (786-0 renal): > 100 µM | TGI (HOP-62 NSCLC): > 100 µM | TGI (OVCAR-4 ovarian): > 100 µM | TGI (IGROV1 ovarian): > 100 µM | TGI (KM12 colon): > 100 µM | TGI (SF-539 CNS): 81.8 µM | TGI (NCI-H23 lung): > 100 µM | TGI (OVCAR-5 ovarian): > 100 µM
